Data taken from PubChem BioAssay AID256 (DTP/NCI, 2004).
“And” between values parts separate entries of the source, which are not always exact repeats. Identical values can stand only once. Inconclusive results and toxic doses are left out.

Test system: CD2F1 mice, L1210 leukemia ip, survival T/C
Experiment: NCI In Vivo Anticancer Drug Screen. Data for tumor model L1210 Leukemia (intraperitoneal) in CD2F1 (CDF1) mice
Settings: higher = longer survival
Outline: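 In this screen, transplantable tumors were grown in mice given either the compound or its vehicle. Results were expressed as the treated measurement relative to the control measurement.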

[1] = endpoint: mean survival time, dose: 100.0 mg/kg/injection, schedule: Q01DX001 (ip), vehicle: saline with Tween-80
[2] = endpoint: mean survival time, dose: 100.0 mg/kg/injection, schedule: Q01DX009 (ip), vehicle: saline with Tween-80
[3] = endpoint: mean survival time, dose: 200.0 mg/kg/injection, schedule: Q01DX001 (ip), vehicle: saline with Tween-80
[4] = endpoint: mean survival time, dose: 200.0 mg/kg/injection, schedule: Q01DX009 (ip), vehicle: saline with Tween-80
[5] = endpoint: mean survival time, dose: 400.0 mg/kg/injection, schedule: Q01DX001 (ip), vehicle: saline with Tween-80
[6] = endpoint: mean survival time, dose: 400.0 mg/kg/injection, schedule: Q01DX009 (ip), vehicle: saline with Tween-80
[7] = endpoint: mean survival time, dose: 100.0 mg/kg/injection, schedule: Q04DX002 (ip), vehicle: saline with Tween-80
[8] = endpoint: mean survival time, dose: 200.0 mg/kg/injection, schedule: Q04DX002 (ip), vehicle: saline with Tween-80
[9] = endpoint: mean survival time, dose: 25.0 mg/kg/injection, schedule: Q04DX003 (ip), vehicle: saline with Tween-80
[10] = endpoint: mean survival time, dose: 100.0 mg/kg/injection, schedule: Q04DX003 (ip), vehicle: saline with Tween-80
[11] = endpoint: mean survival time, dose: 200.0 mg/kg/injection, schedule: Q04DX003 (ip), vehicle: saline with Tween-80
[12] = endpoint: mean survival time, dose: 400.0 mg/kg/injection, schedule: Q04DX003 (ip), vehicle: saline with Tween-80
[13] = endpoint: mean survival time, dose: 50.0 mg/kg/injection, schedule: Q01DX009 (ip), vehicle: Klucel (hydroxypropylcellulose) (HPC)
[14] = endpoint: mean survival time, dose: 100.0 mg/kg/injection, schedule: Q01DX009 (ip), vehicle: Klucel (hydroxypropylcellulose) (HPC)

## NC(=S)N/N=C/c1ccc(Cl)cn1
endpoint: mean survival time, dose: 4.89 mg/kg/injection, schedule: Q01DX009 (ip), vehicle: saline with Tween-80
  T/C: 120 % of control
endpoint: mean survival time, dose: 6.25 mg/kg/injection, schedule: Q04DX002 (ip), vehicle: saline with Tween-80
  T/C: 100 % of control
endpoint: mean survival time, dose: 12.5 mg/kg/injection, schedule: Q04DX002 (ip), vehicle: saline with Tween-80
  T/C: 104 % of control and 108 % of control

## CC(C)(C(O)c1ccccc1)[N+](=O)[O-] (stereo not given)
[1]
  T/C: 105 % of control
[2]
  T/C: 102 % of control
[3]
  T/C: 102 % of control
[4]
  T/C: 95 % of control
[5]
  T/C: 98 % of control
[6]
  T/C: 96 % of control

## O=C(COc1ccc(F)cc1)OCCOC(=O)COc1ccc(F)cc1
[7]
  T/C: 100 % of control
[8]
  T/C: 95 % of control

## CC[C@H]1CN2CCc3cc(OC)c(OC)cc3[C@@H]2C[C@@H]1C[C@H]1NCCc2cc(OC)c(OC)cc21
endpoint: mean survival time, dose: 2.0 mg/kg/injection, schedule: Q01DX007 (ip), vehicle: Klucel (hydroxypropylcellulose) (HPC)
  T/C: 107 % of control
endpoint: mean survival time, dose: 2.0 mg/kg/injection, schedule: Q01DX009 (ip), vehicle: Klucel (hydroxypropylcellulose) (HPC)
  T/C: 108 % of control
endpoint: mean survival time, dose: 2.0 mg/kg/injection, schedule: Q02DX005 (ip), vehicle: saline
  T/C: 93 % of control and 102 % of control
endpoint: mean survival time, dose: 2.0 mg/kg/injection, schedule: Q03DX003 (ip), vehicle: Klucel (hydroxypropylcellulose) (HPC)
  T/C: 110 % of control
endpoint: mean survival time, dose: 2.0 mg/kg/injection, schedule: Q04DX003 (ip), vehicle: Klucel (hydroxypropylcellulose) (HPC)
  T/C: 104 % of control
endpoint: mean survival time, dose: 4.0 mg/kg/injection, schedule: Q01DX007 (ip), vehicle: Klucel (hydroxypropylcellulose) (HPC)
  T/C: 118 % of control
endpoint: mean survival time, dose: 4.0 mg/kg/injection, schedule: Q01DX009 (ip), vehicle: Klucel (hydroxypropylcellulose) (HPC)
  T/C: 122 % of control
endpoint: mean survival time, dose: 4.0 mg/kg/injection, schedule: Q02DX005 (ip), vehicle: saline
  T/C: 104 % of control
endpoint: mean survival time, dose: 4.0 mg/kg/injection, schedule: Q03DX003 (ip), vehicle: Klucel (hydroxypropylcellulose) (HPC)
  T/C: 106 % of control
endpoint: mean survival time, dose: 4.0 mg/kg/injection, schedule: Q04DX003 (ip), vehicle: Klucel (hydroxypropylcellulose) (HPC)
  T/C: 104 % of control
endpoint: mean survival time, dose: 8.0 mg/kg/injection, schedule: Q01DX007 (ip), vehicle: Klucel (hydroxypropylcellulose) (HPC)
  T/C: 105 % of control
endpoint: mean survival time, dose: 8.0 mg/kg/injection, schedule: Q01DX009 (ip), vehicle: Klucel (hydroxypropylcellulose) (HPC)
  T/C: 101 % of control
endpoint: mean survival time, dose: 8.0 mg/kg/injection, schedule: Q03DX003 (ip), vehicle: Klucel (hydroxypropylcellulose) (HPC)
  T/C: 110 % of control
endpoint: mean survival time, dose: 8.0 mg/kg/injection, schedule: Q04DX003 (ip), vehicle: Klucel (hydroxypropylcellulose) (HPC)
  T/C: 110 % of control
[9]
  T/C: 164 % of control and 195 % of control
endpoint: mean survival time, dose: 30.0 mg/kg/injection, schedule: Q04DX003 (ip), vehicle: saline with Tween-80
  T/C: 124 % of control
endpoint: mean survival time, dose: 40.0 mg/kg/injection, schedule: Q04DX003 (ip), vehicle: saline with Tween-80
  T/C: 95 % of control

## CCCCCCCCC1SC1CCCCCCCCOC(=O)CCCCCCCC1SC1CCCCCCCC (stereo not given)
endpoint: mean survival time, dose: 100.0 mg/kg/injection, schedule: Q04DX003 (ip), vehicle: Klucel (hydroxypropylcellulose) (HPC)
  T/C: 95 % of control
endpoint: mean survival time, dose: 200.0 mg/kg/injection, schedule: Q04DX003 (ip), vehicle: Klucel (hydroxypropylcellulose) (HPC)
  T/C: 93 % of control
endpoint: mean survival time, dose: 400.0 mg/kg/injection, schedule: Q04DX003 (ip), vehicle: Klucel (hydroxypropylcellulose) (HPC)
  T/C: 102 % of control

## Cc1ccccc1NC(=O)c1ccccc1
[2]
  T/C: 97 % of control
[4]
  T/C: 100 % of control
[6]
  T/C: 91 % of control

## O=C(O)C1CCCCC1c1c2ccc(=O)cc-2oc2cc(O)ccc12 (stereo not given)
[10]
  T/C: 104 % of control
[11]
  T/C: 92 % of control
[12]
  T/C: 92 % of control

## CCN(CC)c1nc2c(c(=O)n(C)c(=O)n2C)n1CCCNCC(O)c1ccc(O)c(O)c1 (stereo not given)
endpoint: mean survival time, dose: 12.5 mg/kg/injection, schedule: Q01DX005 (ip), vehicle: distilled water + Tween-80
  T/C: 96 % of control
endpoint: mean survival time, dose: 25.0 mg/kg/injection, schedule: Q01DX005 (ip), vehicle: distilled water + Tween-80
  T/C: 103 % of control
endpoint: mean survival time, dose: 50.0 mg/kg/injection, schedule: Q01DX005 (ip), vehicle: distilled water + Tween-80
  T/C: 97 % of control
endpoint: mean survival time, dose: 100.0 mg/kg/injection, schedule: Q01DX005 (ip), vehicle: distilled water + Tween-80
  T/C: 105 % of control
endpoint: mean survival time, dose: 200.0 mg/kg/injection, schedule: Q01DX005 (ip), vehicle: distilled water + Tween-80
  T/C: 100 % of control

## Nc1cccc(OCCOc2ccccc2[N+](=O)[O-])c1
endpoint: mean survival time, dose: 100.0 mg/kg/injection, schedule: Q01DX001 (ip), vehicle: Klucel (hydroxypropylcellulose) (HPC)
  T/C: 93 % of control
endpoint: mean survival time, dose: 200.0 mg/kg/injection, schedule: Q01DX001 (ip), vehicle: Klucel (hydroxypropylcellulose) (HPC)
  T/C: 90 % of control
endpoint: mean survival time, dose: 400.0 mg/kg/injection, schedule: Q01DX001 (ip), vehicle: Klucel (hydroxypropylcellulose) (HPC)
  T/C: 90 % of control

## COc1ccc(C[As+](c2ccccc2)(c2ccccc2)c2ccccc2)cc1
endpoint: mean survival time, dose: 5.0 mg/kg/injection, schedule: Q01DX001 (ip), vehicle: saline
  T/C: 102 % of control
endpoint: mean survival time, dose: 10.0 mg/kg/injection, schedule: Q01DX001 (ip), vehicle: saline
  T/C: 95 % of control
endpoint: mean survival time, dose: 20.0 mg/kg/injection, schedule: Q01DX001 (ip), vehicle: saline
  T/C: 98 % of control
endpoint: mean survival time, dose: 40.0 mg/kg/injection, schedule: Q01DX001 (ip), vehicle: saline
  T/C: 100 % of control

## O=C(O)CCCCCCCC(Br)C(Br)CCCCCCCC(=O)O (stereo not given)
endpoint: mean survival time, dose: 25.0 mg/kg/injection, schedule: Q04DX002 (ip), vehicle: saline with Tween-80
  T/C: 95 % of control
endpoint: mean survival time, dose: 50.0 mg/kg/injection, schedule: Q04DX002 (ip), vehicle: saline with Tween-80
  T/C: 91 % of control
[7]
  T/C: 91 % of control
[8]
  T/C: 95 % of control

## CCN(CC)C1=CC(=O)c2ccccc2C1=O
[9]
  T/C: 102 % of control
endpoint: mean survival time, dose: 50.0 mg/kg/injection, schedule: Q04DX003 (ip), vehicle: saline with Tween-80
  T/C: 96 % of control
[10]
  T/C: 103 % of control

## NC(C(=O)O)c1ccc(CBr)cc1 (stereo not given)
endpoint: median survival time, dose: 3.12 mg/kg/injection, schedule: Q01DX009 (ip), vehicle: saline with Tween-80
  T/C: 108 % of control
endpoint: median survival time, dose: 6.25 mg/kg/injection, schedule: Q01DX009 (ip), vehicle: saline with Tween-80
  T/C: 116 % of control and 100 % of control and 112 % of control
endpoint: median survival time, dose: 12.5 mg/kg/injection, schedule: Q01DX009 (ip), vehicle: saline with Tween-80
  T/C: 113 % of control and 121 % of control and 105 % of control
endpoint: median survival time, dose: 25.0 mg/kg/injection, schedule: Q01DX009 (ip), vehicle: saline with Tween-80
  T/C: 116 % of control and 103 % of control
endpoint: median survival time, dose: 50.0 mg/kg/injection, schedule: Q01DX009 (ip), vehicle: saline with Tween-80
  T/C: 121 % of control and 108 % of control

## COc1cccc(CCC(=O)O)c1OC
endpoint: mean survival time, dose: 25.0 mg/kg/injection, schedule: Q01DX009 (ip), vehicle: Klucel (hydroxypropylcellulose) (HPC)
  T/C: 98 % of control
[13]
  T/C: 101 % of control
[14]
  T/C: 98 % of control
endpoint: mean survival time, dose: 200.0 mg/kg/injection, schedule: Q01DX009 (ip), vehicle: Klucel (hydroxypropylcellulose) (HPC)
  T/C: 87 % of control
endpoint: mean survival time, dose: 400.0 mg/kg/injection, schedule: Q01DX009 (ip), vehicle: Klucel (hydroxypropylcellulose) (HPC)
  T/C: 88 % of control

## C=CCN(CC=C)Cc1cccc(N(CCCl)CCCl)c1 (tested in a mixture with another compound)
[13]
  T/C: 109 % of control
[14]
  T/C: 114 % of control

## CC(C)=CCC(O)C1=CC(=O)c2c(O)ccc(O)c2C1=O (stereo not given)
endpoint: mean survival time, dose: 7.5 mg/kg/injection, schedule: Q04DX003 (ip), vehicle: saline sonified
  T/C: 98 % of control
endpoint: mean survival time, dose: 15.0 mg/kg/injection, schedule: Q04DX003 (ip), vehicle: saline sonified
  T/C: 102 % of control
endpoint: mean survival time, dose: 30.0 mg/kg/injection, schedule: Q04DX003 (ip), vehicle: saline sonified
  T/C: 101 % of control

## COc1ccc(CNCCO)cc1
endpoint: mean survival time, dose: 50.0 mg/kg/injection, schedule: Q01DX009 (ip), vehicle: saline with Tween-80
  T/C: 96 % of control
[2]
  T/C: 102 % of control
[4]
  T/C: 98 % of control

## ClC1C2c3ccccc3C(C1Cl)[n+]1ccccc12 (stereo not given)
endpoint: mean survival time, dose: 12.5 mg/kg/injection, schedule: Q04DX003 (ip), vehicle: Klucel (hydroxypropylcellulose) (HPC)
  T/C: 93 % of control
endpoint: mean survival time, dose: 25.0 mg/kg/injection, schedule: Q04DX003 (ip), vehicle: Klucel (hydroxypropylcellulose) (HPC)
  T/C: 98 % of control

## Cc1cccc(Cl)c1C#N
[1]
  T/C: 104 % of control
[2]
  T/C: 94 % of control
[10]
  T/C: 107 % of control
[3]
  T/C: 106 % of control
[4]
  T/C: 100 % of control
[11]
  T/C: 101 % of control
[5]
  T/C: 106 % of control
[6]
  T/C: 90 % of control
[12]
  T/C: 100 % of control
